Measured values taken from US10561143B2, “Fungicidal composition having synergistic effect” (JIANGSU HUIFENG AGROCHEMICAL CO., LTD., priority 2013, dated 2020).
Values after ≈ are worked out from the molar mass of the structure shown. Read-outs that look alike come from different tables or passages of the source.

Tests used:
[1] = test system: downy mildew pathogens of grape; assay: Toxicity test on downy mildew pathogens of grape (disease index and control effect on whole grape plants, EC50 and co-toxicity coefficient)
[2] = test system: late blight pathogens of potato; assay: whole plant or invertebrate; assay type: in vivo
[3] = Table 9, series with picoxystrobin
[4] = Table 6, series with fluopicolide

Question: With `CC(C)OC(=O)N[C@H](C(=O)N[C@H](C)c1nc2ccc(F)cc2s1)C(C)C` [Benthiavalicarb-isopropyl] as the compound, how does the EC50 [1] read?
Answer: Its EC50 is 10.8 µg/mL (≈ 28.2 µM).

Question: And the EC50 ([2]; Phytophthora infestans)?
Answer: Its EC50 is 6.73 µg/mL (≈ 17.6 µM).

Question: Which EC50 [1, 3] does the source give for `CO/C=C(/C(=O)OC)c1ccccc1COc1cccc(C(F)(F)F)n1` [Picoxystrobin] here?
Answer: Its EC50 is 15.31 µg/mL (≈ 41.7 µM).

Question: With `C[C@@]1(c2ccc(Oc3ccccc3)cc2)OC(=O)N(Nc2ccccc2)C1=O` (racemic) [Famoxadone] as the compound, how does the EC50 [1] read?
Answer: The EC50 was 13.8 µg/mL (≈ 36.9 µM).

Question: With `O=C(NCc1ncc(C(F)(F)F)cc1Cl)c1c(Cl)cccc1Cl` [Fluopicolide] as the compound, how does the EC50 [1, 4] read?
Answer: Its EC50 is 15.32 µg/mL (≈ 39.9 µM).

Question: With `O=[N+]([O-])c1cc(C(F)(F)F)c(Cl)c([N+](=O)[O-])c1Nc1ncc(C(F)(F)F)cc1Cl` [Fluazinam] as the compound, how does the EC50 [1] read?
Answer: Its EC50 is 11.2 µg/mL (≈ 24.2 µM).

Question: How did the EC50 [1] turn out when `O=C(Nc1ccccc1-c1ccc(Cl)cc1)c1cccnc1Cl` [Boscalid] was run?
Answer: The EC50 was 11.6 µg/mL (≈ 33.8 µM).

Question: What about the EC50 ([2]; Phytophthora infestans) of the same compound?
Answer: The EC50 was 6.31 µg/mL (≈ 18.4 µM).

Question: Which EC50 [1] does the source give for `COC(=O)N(OC)c1ccccc1COc1ccn(-c2ccc(Cl)cc2)n1` [pyraclostrobin] here?
Answer: Its EC50 is 10.7 µg/mL (≈ 27.6 µM).

Question: And the EC50 ([2]; Phytophthora infestans)?
Answer: The EC50 was 5.28 µg/mL (≈ 13.6 µM).

Question: How did the EC50 [1] turn out when `OC(Cc1ccccc1Cl)(Cn1nc[nH]c1=S)C1(Cl)CC1` (stereo not drawn) [Prothioconazole] was run?
Answer: The EC50 was 13.3 µg/mL (≈ 38.5 µM).

Question: With `CSC1=N[C@@](C)(c2ccccc2)C(=O)N1Nc1ccccc1` [Fenamidone] as the compound, how does the EC50 [1] read?
Answer: The EC50 was 12.8 µg/mL (≈ 41 µM).

Question: What about the EC50 ([2]; Phytophthora infestans) of the same compound?
Answer: Its EC50 is 6.58 µg/mL (≈ 21.1 µM).

Question: With `O=c1[nH]sc2ccccc12` [Benziothiazolinone] as the compound, how does the EC50 ([1]; Table 1, series with benthiavalicarb-isopropyl) read?
Answer: The EC50 was 8.92 µg/mL (≈ 59 µM).

Question: And the EC50 ([1]; Table 2, series with zoxamide)?
Answer: The EC50 was 9.41 µg/mL (≈ 62.2 µM).

Question: What about the EC50 ([1]; Table 3, series with prothioconazole) of the same compound?
Answer: The EC50 was 10.05 µg/mL (≈ 66.5 µM).

Question: What about the EC50 ([1]; Table 4, series with boscalid) of the same compound?
Answer: Its EC50 is 9.46 µg/mL (≈ 62.6 µM).

Question: What about the EC50 ([1]; Table 5, series with fenamidone) of the same compound?
Answer: The EC50 was 10.59 µg/mL (≈ 70 µM).

Question: What about the EC50 [1, 4] of the same compound?
Answer: Its EC50 is 12.17 µg/mL (≈ 80.5 µM).

Question: And the EC50 ([1]; Table 7, series with famoxadone)?
Answer: Its EC50 is 11.36 µg/mL (≈ 75.1 µM).

Question: What about the EC50 ([1]; Table 8, series with pyraclostrobin) of the same compound?
Answer: Its EC50 is 11.85 µg/mL (≈ 78.4 µM).

Question: What about the EC50 [1, 3] of the same compound?
Answer: Its EC50 is 14.18 µg/mL (≈ 93.8 µM).

Question: And the EC50 ([2]; Table 11, series with pyraclostrobin)?
Answer: Its EC50 is 6.89 µg/mL (≈ 45.6 µM).

Question: What about the EC50 ([2]; Table 12, series with boscalid) of the same compound?
Answer: The EC50 was 5.58 µg/mL (≈ 36.9 µM).

Question: And the EC50 ([2]; Table 13, series with benthiavalicarb-isopropyl)?
Answer: Its EC50 is 6.22 µg/mL (≈ 41.1 µM).

Question: What about the EC50 ([2]; Table 14, series with zoxamide) of the same compound?
Answer: The EC50 was 5.89 µg/mL (≈ 39 µM).

Question: And the EC50 ([2]; Table 15, series with fenamidone)?
Answer: Its EC50 is 6.12 µg/mL (≈ 40.5 µM).

Question: With `Cl.O=c1[nH]sc2ccccc12` [Benziothiazolinone hydrochloride] as the compound, how does the EC50 ([1]; Table 10, series with fluazinam) read?
Answer: The EC50 was 12.87 µg/mL.

Question: For `CCC(C)(NC(=O)c1cc(Cl)c(C)c(Cl)c1)C(=O)CCl` (stereo not drawn) [Zoxamide], which EC50 [1] is on record?
Answer: The EC50 was 11.5 µg/mL (≈ 34.1 µM).

Question: What about the EC50 ([2]; Phytophthora infestans) of the same compound?
Answer: The EC50 was 6.21 µg/mL (≈ 18.4 µM).
